The source of these data is US6514686B2, “Method and composition for modulating amyloidosis” (The University of British Columbia, priority 1997, dated 2003).

Experiment [1] concerns Aβ secretion in K269sw cells transfected with human pHaMDR1 construct. The experiment can be described thus: Aβ secretion from K269sw cells transiently transfected with pHaMDR1 (W0-2 western blot). To be noted: RU49953 0.01-1.0 μM, fifteen minutes; FIG. 12. It counts as cell-based. The protocol:
K269sw cells were cultured in 20 mm Falcon dishes in DMEM containing 10% FBS, and […] geneticin (GIBCO) to about 50% confluence and transiently transfected with the human pHaMDR1 construct using the calcium-phosphate precipitation technique as described above. Cells were replated at a density of 2.0×10^6 cells/dish 8 hours post-transfection on 10 cm petri dishes as described above. To assay for transfection efficiency, the β-gal gene was also co-transfected into the cells. β-gal staining was performed to determine the percentage of cells within each dish which were successfully transfected with the cDNA.
Exposures were performed without resuspending the cells. 10 mL of DMEM containing either control (DMSO), PMA (0.1 μM), or RU486 (0.001 μM, 0.01 μM, 0.1 μM, 1.0 μM), were prepared. DMSO concentrations in the medium were normalized to 0.01% (v/v). The supplemented medium was aspirated and 1 mL of the appropriate medium was added to the cells. […] 5 μL from each sample was collected for protein quantification. […]
SDS-PAGE was used to resolve secreted protein on a 16.5% tris-tricine polyacrylamide gel. […] Aβ was visualized using ECL and quantitation was performed as previously described. […]
Exposures were performed without resuspending the cells. […] 5 μL from each sample was collected for protein quantification. […]
A general note: Immunoblotting shows a protein as a band on a membrane.

Another experiment concerns MDR1. Particulars: cited from earlier work.

Take `CC#C[C@]1(O)CC[C@H]2[C@@H]3CCC4=CC(=O)CCC4=C3[C@@H](c3ccc(N(C)C)cc3)C[C@@]21C` [RU49953, 17β-hydroxy-11β, 17α-[4-dimethylaminophenyl]-17α prop-1-ynyl estra-4, 9 dien-3 one]: the “effect on Aβ secretion” value in experiment [1] is reported as “reduces Aβ secretion in fifteen minutes in a dose-dependent manner”. The “binding to and block of MDR1 mediated efflux” value with MDR1 is “bind to and block”.
